Patent publication US20220125959A1, “PROSTATE-SPECIFIC MEMBRANE ANTIGEN (PSMA) INHIBITORS AS DIAGNOSTIC AND RADIONUCLIDE THERAPEUTIC AGENTS” (FIVE ELEVEN PHARMA INC., priority 2019, published 2022)

What was measured:
[1] = tested on: PSMA-positive cell line, PIP PC3; assay: In vitro cell uptake, PIP PC3 cells; format: cell-based
Summary of the method: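 Cellular uptake of [^177Lu]-labelled ligands was measured in PIP PC3 cells seeded at 5×10^5 cells/well in 12-well plates and grown 48 h in 1 mL medium. After two PBS washes and addition of 900 μL fresh medium, triplicate wells were incubated at 37° C. Cells were then washed twice, lysed in 1 mL of 0.5 M NaOH, and gamma-counted, with uptake expressed as % ID.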

[2] = tested on: PSMA-negative cell line, PC3; assay: In vitro cell uptake, PC3 cells; format: cell-based; details: PC3 (do not express PSMA), 60 min
Summary of the method: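 Cells grown 48 h, washed, then incubated at 37 °C with [^177Lu]-labelled ligand; nonspecific binding defined with 10 μM 2-PMPA. After washing and lysis in 0.5 M NaOH, activity counted in a gamma counter; uptake expressed as % ID, triplicates.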

[3] = tested on: PC3-PIP (PSMA positive) and PC-3 tumors (PSMA negative); assay: Biodistribution of 177Lu labeled compounds 42 and 51 in tumor bearing nude mice; format: in vivo, CD-1 male nude mice
Protocol: For iv injection 150 μL of labeled solution was diluted with saline to 3.75mL. Mice were injected with 150 μL of formulated dose. Injected radioactivity was 100 μCi and PSMA ligand amount was constant at 0.72 nmole/mouse.
Similarly, the tissue distribution of [^177Lu]42 and [^177Lu]51 was evaluated in mice bearing PIP PC3 (PSMA positive) and PC3 (PSMA negative) tumors on the left and right shoulder, respectively, over a period of 24 h (Table 4). […] The tumor specific uptake for [^177Lu]51 was higher than that observed for [^177Lu]42. […] Results of this study lend support for using these dual-targeted ^177Lu labeled agents for treatment of metastatic prostate cancer.

[4] = Stability of injected doses after formulation; format: physicochemical; details: at 24 hr after formulation
Summary of the method: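 Ligand labeled with ^68Ga (90° C, 10 min) or ^177Lu (95° C, 1 hour) in NaOAc; radiochemical purity checked by radio-HPLC, with stability of formulated doses followed to 2 hr (^68Ga) or 48 hr (^177Lu). Mice received iv 100 μCi, 0.72 nmole ligand/mouse.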

[5] = PIP PC3, 60 min, with PSMA inhibitor (2-PMPA, 2 uM)

## O=C([O-])CN1CCN(C(CCC(=O)NCC(=O)NC(Cc2ccc(OCC(=O)NC(Cc3ccccc3)C(=O)NCCCCC(NC(=O)NC(CCC(=O)O)C(=O)O)C(=O)O)cc2)C(=O)O)C(=O)[O-])CCN(CC(=O)[O-])CCN(C(CCC(=O)NCC(=O)NC(P(=O)(O)O)P(=O)(O)O)C(=O)O)CC1.[177Lu+3] (stereo not shown) [[^177Lu]42]
[1]; PIP PC3, 5 min
  In vitro cell uptake: 3.3 % ID per 5 × 10^5 cells
[1]; PIP PC3, 15 min
  In vitro cell uptake: 5.5 % ID per 5 × 10^5 cells
[1]; PIP PC3, 30 min
  In vitro cell uptake: 7.6 % ID per 5 × 10^5 cells
[1]; PIP PC3, 60 min
  In vitro cell uptake: 8.6 % ID per 5 × 10^5 cells
[1]; [5]
  In vitro cell uptake: 0.9 % ID per 5 × 10^5 cells
[1]; PIP PC3, 120 min
  In vitro cell uptake: 9.8 % ID per 5 × 10^5 cells
[2]
  In vitro cell uptake: 0.8 % ID per 5 × 10^5 cells
[3]; 1 hr
  Biodistribution: Blood: 0.18 ± 0.05 % dose/g
  Biodistribution: Bone: 5.82 ± 1.59 % dose/g
  Biodistribution: Heart: 0.13 ± 0.03 % dose/g
  Biodistribution: Kidney: 27.52 ± 7.47 % dose/g
  Biodistribution: Lg Intestine: 0.11 ± 0.03 % dose/g
  Biodistribution: Liver: 0.12 ± 0.02 % dose/g
  Biodistribution: Lung: 0.38 ± 0.11 % dose/g
  Biodistribution: Muscle: 0.08 ± 0.02 % dose/g
  Biodistribution: PC3 tumor: 0.41 ± 0.10 % dose/g
  Biodistribution: PIP PC3 tumor: 11.29 ± 2.44 % dose/g
  Biodistribution: Pancreas: 0.20 ± 0.09 % dose/g
  Biodistribution: Skin: 0.22 ± 0.05 % dose/g
  Biodistribution: Sm Intestine: 0.24 ± 0.15 % dose/g
  Biodistribution: Spleen: 0.53 ± 0.17 % dose/g
  Biodistribution: Stomach: 0.17 ± 0.07 % dose/g
[3]; 4 hr
  Biodistribution: Blood: 0.02 ± 0.01 % dose/g
  Biodistribution: Bone: 5.62 ± 1.18 % dose/g
  Biodistribution: Heart: 0.06 ± 0.02 % dose/g
  Biodistribution: Kidney: 11.81 ± 5.81 % dose/g
  Biodistribution: Lg Intestine: 1.03 ± 1.01 % dose/g
  Biodistribution: Liver: 0.08 ± 0.02 % dose/g
  Biodistribution: Lung: 0.13 ± 0.04 % dose/g
  Biodistribution: Muscle: 0.05 ± 0.04 % dose/g
  Biodistribution: PC3 tumor: 0.28 ± 0.11 % dose/g
  Biodistribution: PIP PC3 tumor: 7.62 ± 1.60 % dose/g
  Biodistribution: Pancreas: 0.05 ± 0.02 % dose/g
  Biodistribution: Skin: 0.10 ± 0.03 % dose/g
  Biodistribution: Sm Intestine: 0.94 ± 1.12 % dose/g
  Biodistribution: Spleen: 0.18 ± 0.06 % dose/g
  Biodistribution: Stomach: 0.49 ± 0.60 % dose/g
[3]; 24 hr
  Biodistribution: Blood: 0.00 ± 0.00 % dose/g
  Biodistribution: Bone: 4.55 ± 0.26 % dose/g
  Biodistribution: Heart: 0.03 ± 0.01 % dose/g
  Biodistribution: Kidney: 2.62 ± 0.19 % dose/g
  Biodistribution: Lg Intestine: 0.37 ± 0.20 % dose/g
  Biodistribution: Liver: 0.06 ± 0.00 % dose/g
  Biodistribution: Lung: 0.04 ± 0.01 % dose/g
  Biodistribution: Muscle: 0.03 ± 0.02 % dose/g
  Biodistribution: PC3 tumor: 0.11 ± 0.04 % dose/g
  Biodistribution: PIP PC3 tumor: 4.72 ± 1.68 % dose/g
  Biodistribution: Pancreas: 0.01 ± 0.00 % dose/g
  Biodistribution: Skin: 0.05 ± 0.01 % dose/g
  Biodistribution: Sm Intestine: 0.06 ± 0.05 % dose/g
  Biodistribution: Spleen: 0.04 ± 0.01 % dose/g
  Biodistribution: Stomach: 0.14 ± 0.10 % dose/g
[3]; mouse, in vivo
  PC3 (PSMA negative) tumor uptake: very low uptake
  PIP PC3 (PSMA positive) tumor uptake: excellent
  Uptake in bone: high specific uptake in bone
[4]
  Stability of injected doses: stable

## O=C(O)CC[C@H](NC(=O)N[C@@H](CCCCNC(=O)[C@H](Cc1ccccc1)NC(=O)COc1ccc(C[C@H](NC(=O)CNC(=O)CCC(C(=O)O)N2CCN(CC(=O)O)CCN(CC(=O)O)CCN(CC(=O)O)CC2)C(=O)NCC(=O)NC(P(=O)(O)O)P(=O)(O)O)cc1)C(=O)O)C(=O)O.[177Lu] (stereo partly shown) [[^177Lu]51]
[1]; PIP PC3
  Uptakes compared with reference ligand [177Lu]PSMA-617: much higher uptakes
[1]; PIP PC3, 5 min
  In vitro cell uptake: 4.4 % ID per 5 × 10^5 cells
[1]; PIP PC3, 15 min
  In vitro cell uptake: 8.4 % ID per 5 × 10^5 cells
[1]; PIP PC3, 30 min
  In vitro cell uptake: 13.4 % ID per 5 × 10^5 cells
[1]; PIP PC3, 60 min
  In vitro cell uptake: 17.4 % ID per 5 × 10^5 cells
[1]; [5]
  In vitro cell uptake: 1.1 % ID per 5 × 10^5 cells
[1]; PIP PC3, 120 min
  In vitro cell uptake: 19.3 % ID per 5 × 10^5 cells
[2]
  In vitro cell uptake: 0.7 % ID per 5 × 10^5 cells
[3]; 1 hr
  Biodistribution: Blood: 0.18 ± 0.04 % dose/g
  Biodistribution: Bone: 6.52 ± 0.34 % dose/g
  Biodistribution: Heart: 0.20 ± 0.06 % dose/g
  Biodistribution: Kidney: 90.59 ± 18.47 % dose/g
  Biodistribution: Lg Intestine: 0.10 ± 0.04 % dose/g
  Biodistribution: Liver: 0.23 ± 0.03 % dose/g
  Biodistribution: Lung: 0.62 ± 0.09 % dose/g
  Biodistribution: Muscle: 0.11 ± 0.03 % dose/g
  Biodistribution: PC3 tumor: 0.53 ± 0.12 % dose/g
  Biodistribution: PIP PC3 tumor: 14.70 ± 1.29 % dose/g
  Biodistribution: Pancreas: 0.37 ± 0.11 % dose/g
  Biodistribution: Skin: 0.35 ± 0.05 % dose/g
  Biodistribution: Sm Intestine: 0.16 ± 0.03 % dose/g
  Biodistribution: Spleen: 1.33 ± 0.41 % dose/g
  Biodistribution: Stomach: 0.11 ± 0.03 % dose/g
[3]; 4 hr
  Biodistribution: Blood: 0.03 ± 0.01 % dose/g
  Biodistribution: Bone: 6.74 ± 0.71 % dose/g
  Biodistribution: Heart: 0.05 ± 0.00 % dose/g
  Biodistribution: Kidney: 35.24 ± 5.28 % dose/g
  Biodistribution: Lg Intestine: 0.22 ± 0.15 % dose/g
  Biodistribution: Liver: 0.16 ± 0.00 % dose/g
  Biodistribution: Lung: 0.20 ± 0.06 % dose/g
  Biodistribution: Muscle: 0.03 ± 0.00 % dose/g
  Biodistribution: PC3 tumor: 0.20 ± 0.03 % dose/g
  Biodistribution: PIP PC3 tumor: 15.12 ± 1.36 % dose/g
  Biodistribution: Pancreas: 0.11 ± 0.03 % dose/g
  Biodistribution: Skin: 0.11 ± 0.01 % dose/g
  Biodistribution: Sm Intestine: 0.21 ± 0.29 % dose/g
  Biodistribution: Spleen: 0.39 ± 0.12 % dose/g
  Biodistribution: Stomach: 0.26 ± 0.23 % dose/g
[3]; 24 hr
  Biodistribution: Blood: 0.00 ± 0.00 % dose/g
  Biodistribution: Bone: 5.51 ± 0.66 % dose/g
  Biodistribution: Heart: 0.03 ± 0.01 % dose/g
  Biodistribution: Kidney: 4.18 ± 1.74 % dose/g
  Biodistribution: Lg Intestine: 0.49 ± 0.34 % dose/g
  Biodistribution: Liver: 0.14 ± 0.02 % dose/g
  Biodistribution: Lung: 0.10 ± 0.04 % dose/g
  Biodistribution: Muscle: 0.02 ± 0.00 % dose/g
  Biodistribution: PC3 tumor: 0.16 ± 0.02 % dose/g
  Biodistribution: PIP PC3 tumor: 10.75 ± 2.52 % dose/g
  Biodistribution: Pancreas: 0.03 ± 0.00 % dose/g
  Biodistribution: Skin: 0.07 ± 0.02 % dose/g
  Biodistribution: Sm Intestine: 0.30 ± 0.33 % dose/g
  Biodistribution: Spleen: 0.15 ± 0.04 % dose/g
  Biodistribution: Stomach: 0.40 ± 0.56 % dose/g
[3]; mouse, in vivo
  Bone uptake compared with [177Lu]42: consistently higher
  PC3 (PSMA negative) tumor uptake: very low uptake
  PIP PC3 (PSMA positive) tumor uptake: excellent
  Tumor specific uptake compared with [177Lu]42: higher
  Uptake in bone: high specific uptake in bone
[4]
  Stability of injected doses: stable
